Measured values: patent publication EP4745134A1 (Jiangsu Yahong Meditech Co., Ltd., priority 2023, dated 2025)
Where two headings read alike, the source gives them in different places.

Assays:
PRMT5-MTA = PRMT5-MTA (Homo sapiens, UniProt O14744); experiment: Enzymatic inhibitory activity against PRMT5-MTA (AlphaScreen); assay type: biochemical
Method in brief: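 PRMT5/[…] (1 nM) was preincubated for 30 min at room temperature with 1 µM […] and 2.5 µM SAM, then exposed to compound (10-point, 3-fold from 1000 nM) for 15 min at 23 °C. Histone H4 substrate (5 nM) was added and reacted for 45 min at 23 °C. Symmetric dimethyl-R3 H4 was detected by AlphaScreen and IC50 calculated.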

HCT116 MTAP KO cells = experiment: Inhibitory activity against cell proliferation (CellTiter Glo, 6 days), HCT116 MTAP KO; assay type: cell-based; conditions: for IC50: Homo sapiens, HCT-116, 144 h; for Selectivity HCT 116-WT/ HCT116 MTAP KO: ratio of IC50 HCT116-WT / HCT116 MTAP KO
Method in brief: (§1)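 Viability is measured by CellTiter Glo luminescence on day 7, following a 6-day treatment with compounds serially diluted 4-fold over 8 points from 10000 nM. Both lines are plated at 250 cells per well and cultured overnight beforehand.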

HCT116-WT cells = experiment: Inhibitory activity against cell proliferation (CellTiter Glo, 6 days), HCT116-WT; assay type: cell-based; conditions: 144 h
Method in brief: as §1

[1] = HCT116 MTAP KO cells, 6 days, CellTiter Glo, read-out: HCT116 MTAP KO IC50
[2] = HCT116-WT cells, 6 days, CellTiter Glo, read-out: HCT116-WT IC50

Chain of PRMT5-MTA (O14744 whole entry): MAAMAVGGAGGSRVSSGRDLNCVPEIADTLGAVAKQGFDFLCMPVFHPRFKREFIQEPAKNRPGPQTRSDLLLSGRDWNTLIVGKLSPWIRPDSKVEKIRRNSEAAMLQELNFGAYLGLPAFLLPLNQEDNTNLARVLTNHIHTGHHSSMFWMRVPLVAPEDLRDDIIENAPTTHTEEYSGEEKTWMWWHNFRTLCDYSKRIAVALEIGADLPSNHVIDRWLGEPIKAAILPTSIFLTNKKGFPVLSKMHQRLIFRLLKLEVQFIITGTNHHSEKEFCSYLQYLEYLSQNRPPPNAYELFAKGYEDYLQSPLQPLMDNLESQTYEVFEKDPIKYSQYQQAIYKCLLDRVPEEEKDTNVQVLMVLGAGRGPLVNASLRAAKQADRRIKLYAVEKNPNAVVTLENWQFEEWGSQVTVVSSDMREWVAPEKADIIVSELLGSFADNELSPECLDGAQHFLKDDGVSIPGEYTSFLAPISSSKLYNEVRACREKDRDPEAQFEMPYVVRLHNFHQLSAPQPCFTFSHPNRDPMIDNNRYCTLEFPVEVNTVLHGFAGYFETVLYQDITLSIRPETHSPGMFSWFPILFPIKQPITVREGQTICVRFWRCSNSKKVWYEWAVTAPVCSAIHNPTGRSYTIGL
Chain of PRMT5-MTA (Q9BQA1 whole entry partner): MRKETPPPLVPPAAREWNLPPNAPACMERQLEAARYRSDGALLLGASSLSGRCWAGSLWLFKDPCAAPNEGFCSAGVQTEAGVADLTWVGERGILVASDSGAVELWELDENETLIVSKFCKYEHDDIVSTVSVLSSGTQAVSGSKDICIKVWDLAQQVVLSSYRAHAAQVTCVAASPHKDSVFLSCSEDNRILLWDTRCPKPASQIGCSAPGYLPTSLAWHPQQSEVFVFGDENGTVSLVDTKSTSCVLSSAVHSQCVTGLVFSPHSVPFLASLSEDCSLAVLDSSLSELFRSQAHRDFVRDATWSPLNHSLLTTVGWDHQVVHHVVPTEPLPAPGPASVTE

Cn1ncc2c(N)nc3cc(Cl)c(C(=O)N4CC5(CC5)CN4c4ncc(Cl)cc4F)cc3c21 [Example 347, (4-amino-7-chloro-1-methyl-1H-pyrazolo [4,3-c]quinolin-8-yl)(6-(5-chloro-3-fluoropyridin-2-yl)-5,6-diazaspiro[2.4]heptan-5-yl)methanone]
IC50 (PRMT5-MTA; read-out: IC50): 7.1 nM | IC50 (HCT116 MTAP KO cells; [1]): 32 nM | Selectivity HCT 116-WT/ HCT116 MTAP KO (HCT116 MTAP KO cells): 39.88 | IC50 (HCT116-WT cells; [2]): 1280 nM

Cc1cc2cc(C(=O)N(Cc3ccc(-c4ccc(C(F)(F)F)nc4)cn3)N(C)c3ncccn3)ccc2nc1N [Example 154, 2-amino-N',3-dimethyl-N'-(pyrimidin-2-y 1)-N-((6'-(trifluoromethyl)-[3,3'-bipyridine]-6-yl)methyl)quinoline-6-carbohydrazide]
IC50 (PRMT5-MTA; read-out: IC50): 1.6 nM | IC50 (HCT116 MTAP KO cells; [1]): 60 nM | Selectivity HCT 116-WT/ HCT116 MTAP KO (HCT116 MTAP KO cells): 13.88 | IC50 (HCT116-WT cells; [2]): 833 nM

COc1cnc(N(C)N(Cc2ccc(C(F)(F)F)cn2)C(=O)c2ccc3nc(N)c(C)cc3c2)nc1 [Example 39, 2-amino-N'-(5-methoxypyrimidin-2-yl)-N',3-dimethyl-N-((5-(trifluoromethyl)pyridin-2-yl)methyl)quinoline-6-carbohydrazide]
IC50 (PRMT5-MTA; read-out: IC50): 2.7 nM | IC50 (HCT116 MTAP KO cells; [1]): 235 nM | Selectivity HCT 116-WT/ HCT116 MTAP KO (HCT116 MTAP KO cells): 15.95 | IC50 (HCT116-WT cells; [2]): 3750 nM

Cn1ncc2c(N)nc3cc(Cl)c(C(=O)N4CC(C(F)(F)F)CN4c4ncccc4F)cc3c21 (stereo not drawn) [Example 351, (4-amino-7-chloro-1-methyl-1H-pyrazolo [4,3-c]quinolin-8-yl)(2-(3-fluoropyridin-2-yl)-4-(trifluoromethyl)pyrazolidin-1-yl) methanone]
IC50 (PRMT5-MTA; read-out: IC50): 4.9 nM | IC50 (HCT116 MTAP KO cells; [1]): 85 nM | Selectivity HCT 116-WT/ HCT116 MTAP KO (HCT116 MTAP KO cells): 21.59 | IC50 (HCT116-WT cells; [2]): 1840 nM

Cc1cc2cc(C(=O)N(Cc3ccc(-c4nncs4)cn3)N(C)c3nccc4nccnc34)ccc2nc1N [Example 232, N-((5-(1,3,4-thiadiazol-2-yl)pyridin-2-yl)methyl)-2-amino-N',3-dimethyl-N'-(pyrido[3,4-b]pyrazin-5-yl)quinoline-6-carbohy drazide]
IC50 (PRMT5-MTA; read-out: IC50): 4.3 nM | IC50 (HCT116 MTAP KO cells; [1]): 46 nM | Selectivity HCT 116-WT/ HCT116 MTAP KO (HCT116 MTAP KO cells): 21.63 | IC50 (HCT116-WT cells; [2]): 995 nM

Cc1cc2cc(C(=O)N(Cc3ccc(-c4ccc(C#N)nc4)cn3)N(C)c3ncccn3)ccc2nc1N [Example 139, 2-amino-N-((6'-cyano-[3,3'-bipyridine]-6-yl)methyl)-N',3-dimethyl-N'-(pyrimidin-2-yl)quinoline-6-carbohydrazide]
IC50 (PRMT5-MTA; read-out: IC50): 3 nM | IC50 (HCT116 MTAP KO cells; [1]): 22 nM | Selectivity HCT 116-WT/ HCT116 MTAP KO (HCT116 MTAP KO cells): 12.77 | IC50 (HCT116-WT cells; [2]): 281 nM

Cn1ncc2c(N)nc3cc(Cl)c(C(=O)N4CC5(CN4c4cccc(F)n4)CC(F)(F)C5)cc3c21 [Example 414, (4-amino-7-chloro-1-methyl-1H-pyrazolo [4,3-c]quinolin-8-yl)(2,2-difluoro-7-(6-fluoropyridin-2-yl)-6,7-diazaspiro[3.4]octan-6-yl)methanone]
IC50 (PRMT5-MTA; read-out: IC50): 6.2 nM | IC50 (HCT116 MTAP KO cells; [1]): 18 nM | Selectivity HCT 116-WT/ HCT116 MTAP KO (HCT116 MTAP KO cells): 16.94 | IC50 (HCT116-WT cells; [2]): 305 nM

Cc1cc2nc(N)c3cnn(C)c3c2cc1C(=O)N1CC(C)CN1c1ncc(-c2cnc3c(cnn3C)c2)cc1F (stereo not drawn) [Example 479, (4-amino-1,7-dimethyl-1H-pyrazolo[4,3-c]quinolin-8-yl)(2-(3-fluoro-5-(1-methyl-1H-pyrazolo[3,4-b]pyridin-5-yl)pyridin-2-yl)-4-methylpyrazolidin-1-yl)methanone]
IC50 (PRMT5-MTA; read-out: IC50): 5.3 nM | IC50 (HCT116 MTAP KO cells; [1]): 32 nM | Selectivity HCT 116-WT/ HCT116 MTAP KO (HCT116 MTAP KO cells): 39.66 | IC50 (HCT116-WT cells; [2]): 1270 nM

Cc1cc2nc(N)c3cnn(C)c3c2cc1C(=O)N1CCCN1c1ncc(-c2ccc(N3CCN(C)CC3)nc2)cc1F [Example 478]
IC50 (PRMT5-MTA): 19 nM | IC50 (HCT116 MTAP KO cells; read-out: HCT116 MTAP KO IC50 (nM)): 166 nM | Selectivity HCT 116-WT/ HCT116 MTAP KO (HCT116 MTAP KO cells): 26.01 | IC50 (HCT116-WT cells; read-out: HCT116-WT IC50 (nM)): 4320 nM

Cc1cc2nc(N)c3cnn(C)c3c2cc1C(=O)N1CC(CO)CN1c1ncccc1F (stereo not drawn) [Example 358, (4-amino-1,7-dimethyl-1H-pyrazolo[4,3-c]quinolin-8-yl)(2-(3-fluoropyridin-2-yl)-4-(hydroxymethyl)pyrazolidin-1-yl)methanone]
IC50 (PRMT5-MTA; read-out: IC50): 6.7 nM | IC50 (HCT116 MTAP KO cells; [1]): 303 nM | Selectivity HCT 116-WT/ HCT116 MTAP KO (HCT116 MTAP KO cells): >33.00 | IC50 (HCT116-WT cells; [2]): > 10000 nM

Cc1cc2cc(C(=O)N(Cc3ccc(C#N)cn3)N(C)c3ncccn3)ccc2nc1N [Example 94, 2-amino-N-((5-cyanopyridin-2-yl)methyl)-N',3-dimethyl-N'-(pyrimidin-2-yl) quinoline-6-carbohydrazide]
IC50 (PRMT5-MTA; read-out: IC50): 2.3 nM | IC50 (HCT116 MTAP KO cells; [1]): 130 nM | Selectivity HCT 116-WT/ HCT116 MTAP KO (HCT116 MTAP KO cells): 23.60 | IC50 (HCT116-WT cells; [2]): 3070 nM

Cc1cc2cc(C(=O)N(Cc3ccc(C(F)(F)F)cn3)N(C)c3ncc(C#N)cn3)ccc2nc1N [Example 58, 2-amino-N'-(5-cyanopyrimidin-2-yl)-N',3-dimethyl-N-((5-(trifluoromethyl)pyridin-2-yl)methyl)quinoline-6-carbohydrazide]
IC50 (PRMT5-MTA; read-out: IC50): 4 nM | IC50 (HCT116 MTAP KO cells; [1]): 210 nM | Selectivity HCT 116-WT/ HCT116 MTAP KO (HCT116 MTAP KO cells): 14.92 | IC50 (HCT116-WT cells; [2]): 3130 nM

Cc1cc2cc(C(=O)N(Cc3ccc(Br)cn3)N(C)c3nccc4nccnc34)ccc2nc1N [Example 73, 2-amino-N-((5-bromopyridin-2-yl)methyl)-N',3-dimethyl-N'-(pyrido[3,4-b]pyrazin-5-yl)quinoline-6-carbohydrazide]
IC50 (PRMT5-MTA; read-out: IC50): 2.5 nM | IC50 (HCT116 MTAP KO cells; [1]): 40 nM | Selectivity HCT 116-WT/ HCT116 MTAP KO (HCT116 MTAP KO cells): 29.88 | IC50 (HCT116-WT cells; [2]): 1200 nM

Cc1cc2cc(C(=O)N(Cc3ccc(C4(F)CCC4)cn3)N(C)c3ncccn3)ccc2nc1N [Example 287, 2-amino-N-((5-(1-fluorocyclobutyl)pyridin-2-yl)methyl)-N',3-dimethyl-N'-(pyrimidin-2-yl)quinoline-6-carbohydrazide]
IC50 (PRMT5-MTA; read-out: IC50): 2.2 nM | IC50 (HCT116 MTAP KO cells; [1]): 113 nM | Selectivity HCT 116-WT/ HCT116 MTAP KO (HCT116 MTAP KO cells): 22.69 | IC50 (HCT116-WT cells; [2]): 2560 nM

Cc1cc2cc(C(=O)N(Cc3c(F)cc(Br)cc3F)N(C)c3ncccn3)ccc2nc1N [Example 278, 2-amino-N-(4-bromo-2,6-difluorobenzyl) -N',3-dimethyl-N'-(pyrimidin-2-yl)quinoline-6-carbohydrazide]
IC50 (PRMT5-MTA; read-out: IC50): 1.5 nM | IC50 (HCT116 MTAP KO cells; [1]): 28 nM | Selectivity HCT 116-WT/ HCT116 MTAP KO (HCT116 MTAP KO cells): 14.11 | IC50 (HCT116-WT cells; [2]): 395 nM

Cc1cc2cc(C(=O)N(Cc3ccc(-c4cncnc4)cn3)N(C)c3ncccn3)ccc2nc1N [Example 193, 2-amino-N',3-dimethyl-N'-(pyrimidin-2-yl)-N-((5-(pyrimidin-5-yl)pyridin-2-yl)methyl)quinoline-6-carbohydrazide]
IC50 (PRMT5-MTA; read-out: IC50): 2.7 nM | IC50 (HCT116 MTAP KO cells; [1]): 94 nM | Selectivity HCT 116-WT/ HCT116 MTAP KO (HCT116 MTAP KO cells): 25.35 | IC50 (HCT116-WT cells; [2]): 2380 nM

Cc1cc2cc(C(=O)N(Cc3ccc(Br)cn3)N(C)c3ncccc3C(F)(F)F)ccc2nc1N [Example 60, 2-amino-N-((5-bromopyridin-2-yl)methyl)-N',3-dimethyl-N'-(3-(trifluoromethyl)pyridin-2-yl)quinoline-6-carbohydrazide]
IC50 (PRMT5-MTA; read-out: IC50): 2.3 nM | IC50 (HCT116 MTAP KO cells; [1]): 60 nM | Selectivity HCT 116-WT/ HCT116 MTAP KO (HCT116 MTAP KO cells): 11.80 | IC50 (HCT116-WT cells; [2]): 708 nM

Cc1cc2nc(N)c3cnn(C)c3c2cc1C(=O)N1CC(C)CN1c1cnccn1 (stereo not drawn) [Example 397, (4-amino-1,7-dimethyl-1H-pyrazolo[4,3-c]quinolin-8-yl)(4-methyl-2-(pyrazin-2-yl)pyrazolidin-1-yl)methanone]
IC50 (PRMT5-MTA; read-out: IC50): 15 nM | IC50 (HCT116 MTAP KO cells; [1]): 197 nM | Selectivity HCT 116-WT/ HCT116 MTAP KO (HCT116 MTAP KO cells): 34.46 | IC50 (HCT116-WT cells; [2]): 6790 nM

Cc1cc2nc(N)c3cnn(C)c3c2cc1C(=O)N1C[C@@H](C)CN1c1ncccc1F (single isomer, unassigned) [Example 464]
IC50 (PRMT5-MTA; read-out: IC50): 3.1 nM | IC50 (HCT116 MTAP KO cells; [1]): 17 nM | Selectivity HCT 116-WT/ HCT116 MTAP KO (HCT116 MTAP KO cells): 64.06 | IC50 (HCT116-WT cells; [2]): 1090 nM

Cc1cc2nc(N)c3cnn(C)c3c2cc1C(=O)N1C[C@H](C)CN1c1ncccc1F (single isomer, unassigned) [Example 465]
IC50 (PRMT5-MTA; read-out: IC50): 3.4 nM | IC50 (HCT116 MTAP KO cells; [1]): 23 nM | Selectivity HCT 116-WT/ HCT116 MTAP KO (HCT116 MTAP KO cells): 45.35 | IC50 (HCT116-WT cells; [2]): 1040 nM

COC1CN(C(=O)c2cc3c(cc2C)nc(N)c2cnn(C)c23)N(c2ncc(F)cc2F)C1 (stereo not drawn) [Example 443, (4-amino-1,7-dimethyl-1H-pyrazolo[4,3-c]quinolin-8-yl)(2-(3,5- ? fluoropyridin-2-yl)-4-methoxypyrazolidin-1-yl)methanone]
IC50 (PRMT5-MTA; read-out: IC50): 5 nM | IC50 (HCT116 MTAP KO cells; [1]): 26 nM | Selectivity HCT 116-WT/ HCT116 MTAP KO (HCT116 MTAP KO cells): 18.00 | IC50 (HCT116-WT cells; [2]): 468 nM
